Source: patent publication USPP13279P2, “Mint plant named ‘Saksham’” (Council of Scientific and Industrial Research, priority 2000, dated 2002)

Tested on: in vitro regenerates (shoots) of Mentha arvensis ‘Himalaya’ somaclones
Test: Menthol tolerance/toxicity test of in vitro regenerates in MS based medium containing menthol
Format: cell-based
Excerpt: The applicants used the plant ‘Himalaya’ (U.S. Plant Pat. No. 10,935), an elite mint genotype for large scale screening of in vitro raised clones (Khanuja S P S, Shasany A K, Dhawan S, Sushil Kumar, 1998, Rapid procedure for isolating somaclones of altered genotypes in Mentha arvensis. J medicinal and Aromatic Plant Sciences 20:359-361) to select clones tolerant to high menthol concentration in the medium (An efficient in vitro selection procedure for large scale screening of mint clones to isolate high menthol genotypes. Khanuja et al, Procedure patent pending, 1999).
While testing the tolerance of in vitro regenerates in presence of menthol in the MS based medium (Murashige T and Skoog F, 1962, A revised medium for rapid growth and bioassay with tobacco tissue cultures; Physiol. Planta. 15 473-497), the initial toxicity symptoms were first observed at the menthol concentration of 40 μg ml^−1 menthol after 7 days. […] Here it was immediate chlorophyll loss and irreversible wilting of the shoots, non-rescuable even by culturing these regenerates in normal medium without menthol. Lowest survival was detected at a concentration of 70 μg ml^−1, where only 1% shoots could survive. […] Ultimately 36, clones were selected for tolerance at 70 μg ml^−1 menthol by screening about 2950 clones. These were transferred to field for evaluation in a plant test area at Lucknow, India. […]

For CC1CCC(C(C)C)C(O)C1 (centres unmarked) [menthol], the “menthol concentration tolerated in the culture medium” value (clone GRB-30 (‘Saksham’), retesting in vitro) was 80 µg/mL and the “shoots that could survive (lowest survival)” value (menthol 70 μg ml^−1 in the medium) was 1%.
